Patent US10730863B2, “Bridged bicyclic compounds as farnesoid X receptor modulators” (BRISTOL-MYERS SQUIBB COMPANY, priority 2017, dated 2020)

Target: FXR (Homo sapiens (Human), UniProt Q96RI1)
Experiment: FXR EC50 (FXR agonist activity reported with each example)
Format: cell-based

Sequence of FXR (Q96RI1 262-486): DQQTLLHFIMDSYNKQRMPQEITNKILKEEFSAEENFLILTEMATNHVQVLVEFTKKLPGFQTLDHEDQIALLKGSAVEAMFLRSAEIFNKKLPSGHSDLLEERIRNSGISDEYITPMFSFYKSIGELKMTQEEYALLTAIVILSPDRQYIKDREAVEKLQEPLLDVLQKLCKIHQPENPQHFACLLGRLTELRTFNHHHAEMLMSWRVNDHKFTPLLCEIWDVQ

| EC50 [nM] | Compound |
| --- | --- |
| 170 | O=C(O)c1ccc(-c2noc(C34CCC(OCc5c(-c6ccccc6OC(F)(F)F)noc5C5CC5)(CC3)CC4)n2)cc1 [Example 2, 4-(5-(4-((5-cyclopropyl-3-(2-(trifluoromethoxy)phenyl)isoxazol-4-yl)methoxy)bicyclo[2.2.2]octan-1-yl)-1,2,4-oxadiazol-3-yl)benzoic acid] |
| 890 | CS(=O)(=O)NC(=O)c1ccc(-c2noc(C34CCC(OCc5c(-c6c(Cl)cccc6Cl)noc5C5CC5)(CC3)CC4)n2)cc1 [Example 3, 4-(5-(4-((5-cyclopropyl-3-(2,6-dichlorophenyl)isoxazol-4-yl)methoxy)bicyclo[2.2.2]octan-1-yl)-1,2,4-oxadiazol-3-yl)-N-(methylsulfonyl)benzamide] |
| 110 | COc1ccc(-c2noc(C34CCC(OCc5c(-c6ccccc6OC(F)(F)F)noc5C5CC5)(CC3)CC4)n2)cc1C(=O)O [Example 4, 5-(5-(4-((5-cyclopropyl-3-(2-(trifluoromethoxy)phenyl)isoxazol-4-yl)methoxy)bicyclo[2.2.2]octan-1-yl)-1,2,4-oxadiazol-3-yl)-2-methoxybenzoic acid] |
| 4200 | O=C(O)c1ccc2nc(C34CCC(OCc5c(-c6ccccc6C(F)(F)F)noc5C5CC5)(CC3)CC4)sc2c1 [Example 6, 2-(4-((5-cyclopropyl-3-(2-(trifluoromethyl)phenyl)isoxazol-4-yl)methoxy)bicyclo[2.2.2]octan-1-yl)benzo[d]thiazole-6-carboxylic acid] |
| 380 | FC(F)(F)Oc1ccccc1-c1noc(C2CC2)c1COC12CCC(/C=C/c3cccc(-c4nnn[nH]4)c3)(CC1)CC2 [Example 8, (E)-4-(((4-(3-(1H-tetrazol-5-yl)styryl)bicyclo[2.2.2]octan-1-yl)oxy)methyl)-5-cyclopropyl-3-(2-(trifluoromethoxy)phenyl)isoxazole] |
| 2900 | O=C(O)c1cncc(-c2noc(C34CCC(OCc5c(-c6ccccc6C(F)(F)F)noc5C5CC5)(CC3)CC4)n2)c1 [Example 11, 5-(5-(4-((5-cyclopropyl-3-(2-(trifluoromethyl)phenyl)isoxazol-4-yl)methoxy)bicyclo[2.2.2]octan-1-yl)-1,2,4-oxadiazol-3-yl)nicotinic acid] |
| 1200 | O=C(O)c1ccc(-c2noc(C34CCC(OCc5c(-c6ccccc6OC(F)(F)F)noc5C5CC5)(CC3)CC4)n2)cn1 [Example 12, 5-(5-(4-((5-cyclopropyl-3-(2-(trifluoromethoxy)phenyl)isoxazol-4-yl)methoxy)bicyclo[2.2.2]octan-1-yl)-1,2,4-oxadiazol-3-yl)picolinic acid] |
| 130 | O=C(O)c1cc(-c2noc(C34CCC(OCc5c(-c6c(Cl)cccc6Cl)noc5C5CC5)(CC3)CC4)n2)ccn1 [Example 14, 4-(5-(4-((5-cyclopropyl-3-(2,6-dichlorophenyl)isoxazol-4-yl)methoxy)bicyclo[2.2.2]octan-1-yl)-1,2,4-oxadiazol-3-yl)picolinic acid] |
| 36 | O=C(O)c1cc(F)c2nc(C34CCC(OCc5c(-c6c(Cl)cccc6Cl)noc5C5CC5)(CC3)CC4)sc2c1 [Example 16, 2-(4-((5-cyclopropyl-3-(2,6-dichlorophenyl)isoxazol-4-yl)methoxy)bicyclo[2.2.2]octan-1-yl)-4-fluorobenzo[d]thiazole-6-carboxylic acid] |
| 1100 | O=C(O)c1cccc(-c2nnc(C34CCC(OCc5c(-c6ccccc6OC(F)(F)F)noc5C5CC5)(CC3)CC4)o2)c1 [Example 18, 3-(5-(4-((5-cyclopropyl-3-(2-(trifluoromethoxy)phenyl)isoxazol-4-yl)methoxy)bicyclo[2.2.2]octan-1-yl)-1,3,4-oxadiazol-2-yl)benzoic acid] |
| 1700 | O=C(O)c1cccc(-c2nnc(C34CCC(OCc5c(-c6ccccc6OC(F)(F)F)noc5C5CC5)(CC3)CC4)s2)c1 [Example 19, 3-(5-(4-((5-cyclopropyl-3-(2-(trifluoromethoxy)phenyl)isoxazol-4-yl)methoxy)bicyclo[2.2.2]octan-1-yl)-1,3,4-thiadiazol-2-yl)benzoic acid] |
| 880 | O=C(O)c1ccc(-c2nc(C34CCC(OCc5c(-c6ccccc6C(F)(F)F)noc5C5CC5)(CC3)CC4)no2)cc1 [Example 21, 4-(3-(4-((5-cyclopropyl-3-(2-(trifluoromethyl)phenyl)isoxazol-4-yl)methoxy)bicyclo[2.2.2]octan-1-yl)-1,2,4-oxadiazol-5-yl)benzoic acid] |
| 2800 | O=C(O)c1cccc(-c2nc(C34CCC(OCc5c(-c6ccccc6C(F)(F)F)noc5C5CC5)(CC3)CC4)no2)n1 [Example 23, 6-(3-(4-((5-cyclopropyl-3-(2-(trifluoromethyl)phenyl)isoxazol-4-yl)methoxy)bicyclo[2.2.2]octan-1-yl)-1,2,4-oxadiazol-5-yl)picolinic acid] |
| 250 | O=C(O)c1ccc2nc(C34CCC(OCc5c(-c6c(Cl)cccc6Cl)noc5C5CC5)(CC3)CC4)ncc2c1 [Example 24, 2-(4-((5-cyclopropyl-3-(2,6-dichlorophenyl)isoxazol-4-yl)methoxy)bicyclo[2.2.2]octan-1-yl)quinazoline-6-carboxylic acid] |

Further lines, the compound ahead of its results:

| Compound | EC50 [nM] |
| --- | --- |
| 3-((4-((5-cyclopropyl-3-(2- trifluoromethoxy)phenyl)isoxazol-4- yl)methoxy)bicyclo[2.2.2]octan-1- yl)methoxy)nicotinic acid [Example 78] | 1400 |
| O=C(O)c1cccc(-c2noc(C34CCC(OCc5c(-c6ccccc6OC(F)(F)F)noc5C5CC5)(CC3)CC4)n2)c1 [Example 1, 3-(5-(4-((5-cyclopropyl-3-(2-(trifluoromethoxy)phenyl)isoxazol-4-yl)methoxy)bicyclo[2.2.2]octan-1-yl)-1,2,4-oxadiazol-3-yl)benzoic acid] | 110 |
| O=C(O)c1cccc(/C=C/C23CCC(OCc4c(-c5c(Cl)cccc5Cl)noc4C4CC4)(CC2)CC3)c1 [Example 7, (E)-3-(2-(4-((5-cyclopropyl-3-(2,6-dichlorophenyl)isoxazol-4-yl)methoxy)bicyclo[2.2.2]octan-1-yl)vinyl)benzoic acid] | 150 |
| O=C(O)c1ccc(-c2noc(C34CCC(OCc5c(-c6c(Cl)cccc6Cl)noc5C5CC5)(CC3)CC4)n2)nc1 [Example 9, 6-(5-(4-((5-cyclopropyl-3-(2,6-dichlorophenyl)isoxazol-4-yl)methoxy)bicyclo[2.2.2]octan-1-yl)-1,2,4-oxadiazol-3-yl)nicotinic acid] | 950 |
| O=C(O)c1ccnc(-c2noc(C34CCC(OCc5c(-c6c(Cl)cccc6Cl)noc5C5CC5)(CC3)CC4)n2)c1 [Example 10, 2-(5-(4-((5-cyclopropyl-3-(2,6-dichlorophenyl)isoxazol-4-yl)methoxy)bicyclo[2.2.2]octan-1-yl)-1,2,4-oxadiazol-3-yl)isonicotinic acid] | 2700 |
| O=C(O)c1cccc(-c2noc(C34CCC(OCc5c(-c6c(Cl)cccc6Cl)noc5C5CC5)(CC3)CC4)n2)n1 [Example 13, 6-(5-(4-((5-cyclopropyl-3-(2,6-dichlorophenyl)isoxazol-4-yl)methoxy)bicyclo[2.2.2]octan-1-yl)-1,2,4-oxadiazol-3-yl)picolinic acid] | 270 |
| O=C(O)c1cc(F)c2nc(C34CCC(OCc5c(-c6ccccc6OC(F)(F)F)noc5C5CC5)(CC3)CC4)sc2c1 [Example 15, 2-(4-((5-cyclopropyl-3-(2-(trifluoromethoxy)phenyl)isoxazol-4-yl)methoxy)bicyclo[2.2.2]octan-1-yl)-4-fluorobenzo[d]thiazole-6-carboxylic acid] | 210 |
| O=C(O)c1ccc2[nH]c(C34CCC(OCc5c(-c6c(Cl)cccc6Cl)noc5C5CC5)(CC3)CC4)nc2c1 [Example 17, 2-(4-((5-cyclopropyl-3-(2,6-dichlorophenyl)isoxazol-4-yl)methoxy)bicyclo[2.2.2]octan-1-yl)-1H-benzo[d]imidazole-5-carboxylic acid] | 2700 |
| O=C(O)c1cccc(-c2nc(C34CCC(OCc5c(-c6ccccc6C(F)(F)F)noc5C5CC5)(CC3)CC4)no2)c1 [Example 20, 3-(3-(4-((5-cyclopropyl-3-(2-(trifluoromethyl)phenyl)isoxazol-4-yl)methoxy)bicyclo[2.2.2]octan-1-yl)-1,2,4-oxadiazol-5-yl)benzoic acid] | 510 |
| O=C(O)c1cc(-c2nc(C34CCC(OCc5c(-c6c(Cl)cccc6Cl)noc5C5CC5)(CC3)CC4)no2)ccn1 [Example 22, 4-(3-(4-((5-cyclopropyl-3-(2,6-dichlorophenyl)isoxazol-4-yl)methoxy)bicyclo[2.2.2]octan-1-yl)-1,2,4-oxadiazol-5-yl)picolinic acid] | 210 |
| O=C(O)c1cccc(-c2noc(C34CCC(OCc5c(-c6ccccc6C(F)(F)F)noc5C5CC5)(CC3)CC4)n2)c1 [Example 25] | 300 |
| CC(C)c1onc(-c2ccccc2OC(F)(F)F)c1COC12CCC(c3nc(-c4ccc(C(=O)O)cc4)no3)(CC1)CC2 [Example 26] | 980 |
| O=C(O)c1ccc(-c2noc(C34CCC(OCc5c(-c6ccccc6C(F)(F)F)noc5C5CC5)(CC3)CC4)n2)cc1 [Example 29] | 330 |
| COc1ccc(-c2noc(C34CCC(OCc5c(-c6ccccc6C(F)(F)F)noc5C5CC5)(CC3)CC4)n2)cc1C(=O)O [Example 31] | 370 |
| COC(=O)c1ccc(-c2noc(C34CCC(OCc5c(-c6ccccc6C(F)(F)F)noc5C5CC5)(CC3)CC4)n2)cc1 [Example 34] | 5100 |
| COC(=O)c1ccc(-c2noc(C34CCC(OCc5c(-c6ccccc6OC(F)(F)F)noc5C(C)C)(CC3)CC4)n2)cc1 [Example 35] | 2400 |
| COC(=O)c1cccc(-c2noc(C34CCC(OCc5c(-c6ccccc6C(F)(F)F)noc5C5CC5)(CC3)CC4)n2)c1 [Example 36] | 3500 |
| O=C(O)c1ccc2nc(C34CCC(OCc5c(-c6ccccc6OC(F)(F)F)noc5C5CC5)(CC3)CC4)sc2c1 [Example 38] | 360 |
| O=C(O)c1cccc(/C=C/C23CCC(OCc4c(-c5ccccc5OC(F)(F)F)noc4C4CC4)(CC2)CC3)c1 [Example 40] | 100 |
| O=C(O)c1ccc(-c2noc(C34CCC(OCc5c(-c6ccccc6OC(F)(F)F)noc5C5CC5)(CC3)CC4)n2)nc1 [Example 42] | 1500 |
| O=C(O)c1cncc(-c2noc(C34CCC(OCc5c(-c6ccccc6OC(F)(F)F)noc5C5CC5)(CC3)CC4)n2)c1 [Example 44] | 870 |
